The results in this text go back to ChEMBL document CHEMBL2417454, “Oxazolopyridines and thiazolopyridines as monoamine oxidase B inhibitors for the treatment of Parkinson's disease” (Bioorg Med Chem, 2013).

By IC50 is commonly meant the point on the concentration scale where inhibition reaches its midpoint.

Test [1] deals with T1, Amine oxidase [flavin-containing] B (Homo sapiens, UniProt P27338).
T1 sequence (P27338 whole entry): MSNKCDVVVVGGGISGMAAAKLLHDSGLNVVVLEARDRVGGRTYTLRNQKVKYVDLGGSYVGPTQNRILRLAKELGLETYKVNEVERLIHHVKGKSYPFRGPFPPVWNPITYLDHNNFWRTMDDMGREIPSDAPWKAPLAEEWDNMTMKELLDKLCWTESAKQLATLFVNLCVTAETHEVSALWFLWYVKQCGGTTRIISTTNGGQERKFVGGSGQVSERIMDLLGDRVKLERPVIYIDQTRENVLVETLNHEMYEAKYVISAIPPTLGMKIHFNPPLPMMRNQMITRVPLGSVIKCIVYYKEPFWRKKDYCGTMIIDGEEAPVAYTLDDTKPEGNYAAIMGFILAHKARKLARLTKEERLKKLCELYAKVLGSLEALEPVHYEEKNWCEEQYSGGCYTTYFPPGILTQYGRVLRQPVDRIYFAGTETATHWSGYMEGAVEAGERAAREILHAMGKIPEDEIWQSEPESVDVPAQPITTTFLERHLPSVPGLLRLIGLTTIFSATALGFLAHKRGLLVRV
Put plainly: Inhibition of human recombinant MAO-B using benzylamine hydrochloride as substrate assessed as H2O2 synthesis at 10 uM after 1 hr by fluorescence assay. Particulars: read-out: INH.

The target of test [2] is T1, Amine oxidase [flavin-containing] B. Put plainly: Inhibition of human recombinant MAO-B using benzylamine hydrochloride as substrate assessed as H2O2 synthesis after 1 hr by fluorescence assay.

In the case of `c1ccc(-c2nc3ccc(N4CCCCCC4)nc3o2)cc1`, the inhibition at 10 µM in test [1] worked out at 57.9%. As to `Fc1ccccc1-c1nc2ccc(N3CCCCC3)nc2o1`, in test [2], the IC50 was found to be 665 nM. Moreover, the inhibition at 10 µM in test [1] was found to be 94.9%. Consider `c1ccc(CNc2ccc3nc(-c4ccccc4)oc3n2)cc1`, for which the inhibition at 10 µM in test [1] is 4.8%.

In the case of `Clc1ccccc1-c1nc2ccc(N3CCCCC3)nc2o1`, the IC50 in test [2] came out at 267 nM. In test [1], the inhibition at 10 µM worked out at 96.3%. `Clc1ccc(-c2nc3ccc(N4CCCCC4)nc3o2)cc1`: in test [2], the IC50 was 890 nM. Besides, the inhibition at 10 µM in test [1] stood at 69.8%. Turning to `Clc1cccc(-c2nc3ccc(N4CCCCC4)nc3o2)c1`, the IC50 in test [2] is 335 nM. In addition, in test [1], the inhibition at 10 µM turned out to be 91.7%. As to `Fc1ccc(-c2nc3ccc(N4CCCCC4)nc3o2)cc1`, the IC50 in test [2] worked out at 270 nM. Further, the inhibition at 10 µM in test [1] was 93.4%. With `CN(Cc1ccccc1)c1ccc2nc(-c3ccccc3)oc2n1`, the inhibition at 10 µM in test [1] was 3.7%. Take `c1ccc(-c2nc3ccc(NC4CCCCC4)nc3o2)cc1`: the IC50 in test [2] was determined as 2540 nM. For the same compound, the inhibition at 10 µM in test [1] stood at 79.1%. Regarding `Fc1cccc(-c2nc3ccc(N4CCCCC4)nc3o2)c1`, the inhibition at 10 µM in test [1] was determined as 89.7%. On to `c1ccc(-c2nc3ccc(N4CCCCC4)nc3o2)cc1`, for which the IC50 in test [2] is 1370 nM. In test [1], the inhibition at 10 µM turned out to be 86.8%. Regarding `c1ccc(-c2nc3ccc(N4CCCCC4)nc3s2)cc1`, the IC50 in test [2] worked out at 356 nM. Further, the inhibition at 10 µM in test [1] was determined as 95.5%. Taken in the same sequence, the figures for `Clc1ccc(-c2nc3ccc(N4CCCCC4)nc3s2)cc1` were 358 nM and 84.2%. Taken in the same sequence, the figures for `Fc1ccc(-c2nc3ccc(N4CCCCC4)nc3s2)cc1` were 26.5 nM and 92.7%. Consider `CNc1ccc2nc(-c3ccccc3)oc2n1`, for which the inhibition at 10 µM in test [1] was found to be 19%. Turning to `Clc1ccccc1-c1nc2ccc(N3CCCCC3)nc2s1`, in test [2], the IC50 was 171 nM. For the same compound, the inhibition at 10 µM in test [1] was found to be 95.1%.
